Assay results: US8129547B2, “Anticoagulation of human blood ex vivo” (priority 2006, dated 2012)
pKi: −log10 of the molar value.

Legend:
Factor XIIa = target: T1, Factor XIIa (Homo sapiens, UniProt P00748); experiment: Determination of Ki values, chromogenic substrate, Dixon evaluation: Factor XIIa; type: biochemical; details: 25° C., tris buffer pH 8.0, substrate H-D-HHT-Gly-Arg-pNA
T1 construct: purchased Haemochrom Diagnostica GmbH (Essen, D)
T1 sequence (P00748 373-615 limits assumed): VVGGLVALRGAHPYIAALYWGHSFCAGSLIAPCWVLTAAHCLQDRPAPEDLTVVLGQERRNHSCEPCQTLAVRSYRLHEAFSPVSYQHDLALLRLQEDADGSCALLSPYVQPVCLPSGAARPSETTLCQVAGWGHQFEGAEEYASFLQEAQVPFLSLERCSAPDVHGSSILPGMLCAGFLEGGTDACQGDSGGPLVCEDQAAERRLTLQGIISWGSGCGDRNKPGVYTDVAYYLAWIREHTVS
Excerpt: (§1) The inhibitors used here are the commercially available exemplary inhibitors Pefabloc tPA/Xa (2,7-bis(4-amidinobenzylidene)-cyclopeptanone-(1), Pentapharm Ltd. Basel, Switzerland), CJ-FXa (benzylsulphonyl-D-arginyl-glycyl-4-amidinobenzylamide, Haemochrom GmbH, Essen, Germany) and CJ-PK (benzylsulphonyl-D-seryl-carbobenzoxylsyl-4-amidinobenzylamide, Haemochrom GmbH, Essen, Germany). Research samples were available of DX-9065a ((+)-(2S)-2-[4-[[3S)-1-acetimidoyl-3-pyrrodinyl]oxy]phenyl]-3-[7-amidino-2-naphthyl]propanic acid, Daiichi Pharmaceutical Company Ltd., Tokyo, Japan), and Otamixaban (2-(R)-(3-carbamimidoylbenyzyl)-3-(R)-[4-(1-oxypyridin-4-yl)benzoylamino]-butyric acid-methylester, Sanofi-Aventis GmbH, Frankfurt, Germany), both of which are undergoing clinical tests. In order to examine the inhibitory action of these exemplarily used inhibitors on the blood coagulation factors plasma-kallikrein, VIIa, Xa, XIa and XIIa, the Ki values of the respective enzyme-inhibitor complexes were determined.
(§2) The enzymes were produced by Haemochrom Diagnostica GmbH (Essen, D) and were dissolved in 0.154 mol/l NaCl. The substrates (Pentapharm AG, Basel, CH) were dissolved in H2O and the inhibitor was dissolved in the above-mentioned tris buffer. The following substrates were used for the individual enzymes:
(§3) 200 μl of inhibitor solution were mixed with 25 μl of substrate for the determination and the reaction was started by the addition of 50 μl of enzyme. After a reaction time of 3-5 mins. 25 μl of acetic acid (50%) were added and the extinction was measured at 405 nm with a microplate reader (iEMS Reader MF 12401, Labsystems, Helsinki, Finland). The evaluation was carried out graphically according to Dixon (Biochem. J., 55, 170, 1953).
(§4) The enzymes were produced by Haemochrom Diagnostica GmbH (Essen, D), and only thrombin was manufactured in our own laboratory according to Walsmann (Pharmazie 23, 401-402, 1968). All the enzymes were dissolved in 0.154 mol/l NaCl. The substrates (Pentapharm AG, Basel, CH) were dissolved in H2O and the inhibitor was dissolved in the above-mentioned tris buffer. The following substrates were used for the individual enzymes:
as §3, with “1401,” for “12401,”

thrombin formation = experiment: Inhibition of thrombin formation (prothrombin fragment F1+2) in hirudin-anticoagulated plasma after activation by kaolin; type: biochemical, human; details: 37° C.
Protocol: In this example thrombin formation was activated in plasma anticoagulated with hirudin by the addition of kaolin and the ability of the inhibitors to inhibit thrombin formation was examined.
Blood sampled from a patient was initially anticoagulated by means of the thrombin inhibitor hirudin. For this purpose 9 parts of blood were mixed with 1 part of hirudin solution (recombinant hirudin HBW 023, Hoechst, Frankfurt, 2000 E/ml of physiological NaCl solution), then centrifuged for 10 minutes at 1300 revolutions per minute (rpm). 900 μl of the plasma anticoagulated with hirudin, present in excess, were mixed in polypropylene tubes with 50 μl of inhibitor solution or 0.9% NaCl solution and 50 μl kaolin suspension (from APTT-Test from Roche Diagnostics, diluted 1:250 before use with physiological NaCl solution), and incubated at 37° C. with light shaking. In this case kaolin acts as a non-physiological surface which activates the blood coagulation thereby finally stimulating thrombin formation. At certain times the quantity of the thrombin formed was determined immunologically on the basis of the formation of the prothrombin fragment F1+2 (Enzygnost F1+2 micro, Dade Behring GmbH, Marburg). This determination is based on an enzyme immunoassay according to the sandwich principle. For this purpose aliquot volumes (600 μl) were anticoagulated at certain times with 0.1 M EDTA (40 μl) and kept at −20° C. To determine the concentration of the prothrombin fragment F1+2 50 μl of plasma (if necessary diluted with PBS, phosphate-buffered saline) were incubated with monoclonal antibodies against the human prothrombin fragment F1+2, which were fixed on a microtitre plate included in the test kit. After a washing stage with PBS, which was used to remove sample material not bound by the antibodies, antibodies conjugated with peroxidase were incubated against human prothrombin binding to the free F1+2 determinants. […] This was then determined photometrically at a wavelength of 492 nm. […]

Factor VIIa = target: T2, Factor VIIa (Homo sapiens, UniProt P08709); experiment: Determination of Ki values, chromogenic substrate, Dixon evaluation: Factor VIIa; type: biochemical; details: 25° C., tris buffer pH 8.0, substrate CH3SO2-D-phe-Gly-Arg-pNA
T2 construct: purchased Haemochrom Diagnostica GmbH (Essen, D)
T2 sequence (P08709 213-466 limits assumed): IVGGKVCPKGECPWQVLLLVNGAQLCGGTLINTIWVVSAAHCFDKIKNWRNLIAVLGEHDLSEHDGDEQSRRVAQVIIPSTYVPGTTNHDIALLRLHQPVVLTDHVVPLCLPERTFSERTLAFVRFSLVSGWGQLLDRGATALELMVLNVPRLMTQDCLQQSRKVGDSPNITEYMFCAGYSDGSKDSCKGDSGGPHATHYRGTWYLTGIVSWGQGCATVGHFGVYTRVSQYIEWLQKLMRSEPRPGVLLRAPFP
T2 sequence (P08709 61-212 partner limits assumed): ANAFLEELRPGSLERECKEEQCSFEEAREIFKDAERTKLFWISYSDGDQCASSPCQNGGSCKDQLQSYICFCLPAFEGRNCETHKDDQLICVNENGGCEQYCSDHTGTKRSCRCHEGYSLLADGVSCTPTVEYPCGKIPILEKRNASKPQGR
Excerpt: as §1, §2, §3, §4
as §3, with “1401,” for “12401,”

Compound	pKi (Factor XIIa)	suppression/blocking of thrombin formation after kaolin activation (thrombin formation; concentration not stated in the sentence (FIGS. 1-3, 6))	pKi (Factor VIIa)	suppression of thrombin formation after kaolin activation (thrombin formation; inhibitor 100 μM)
COC(=O)[C@H](Cc1cccc(C(=N)N)c1)[C@@H](C)NC(=O)c1ccc(-c2cc[n+]([O-])cc2)cc1 (mixture of isomers) [Otamixaban, 2-(R)-(3-carbamimidoylbenyzyl)-3-(R)-[4-(1-oxypyridin-4-yl)benzoylamino]-butyric acid-methylester]	< 3.00	particularly suitable for blocking thrombin formation	4.72	–
N=C(N)c1ccc(C=C2CCCCC(=Cc3ccc(C(=N)N)cc3)C2=O)cc1 [Pefabloc tPA/Xa, 2,7-bis(4-amidinobenzylidene)-cycloheptanone-(1)]	6.44	–	3.85	totally suppressing thrombin formation
